Test [1] has as its system HEK293T cells. The experiment in a line: Drug sensitivity assay (CellTiter-Glo viability) with or without MLN4924 pretreatment. The format is cell-based, human. The conditions noted are these: Supplementary Table 2; for EC50: Homo sapiens, HEK-293T, HEK293T viability, 72 h, compound alone, read-out: Cellular assays EC50; for Toxicity rescue: MLN4924-mediated cytotoxicity rescue, 10 µM used where n.d. The gist of the method: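 Viability of HEK293T–Cas9 cells was compared after 3-day drug treatment with or without 100 nM MLN4924 pretreatment (2 h, versus DMSO). Values are CellTiter-Glo signals relative to DMSO controls.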

The target of test [2] is T1, CDK9–cyclin T (Homo sapiens, UniProt P50750).
T1 construct: purchased Thermo Fisher
T1 sequence (P50750 whole entry): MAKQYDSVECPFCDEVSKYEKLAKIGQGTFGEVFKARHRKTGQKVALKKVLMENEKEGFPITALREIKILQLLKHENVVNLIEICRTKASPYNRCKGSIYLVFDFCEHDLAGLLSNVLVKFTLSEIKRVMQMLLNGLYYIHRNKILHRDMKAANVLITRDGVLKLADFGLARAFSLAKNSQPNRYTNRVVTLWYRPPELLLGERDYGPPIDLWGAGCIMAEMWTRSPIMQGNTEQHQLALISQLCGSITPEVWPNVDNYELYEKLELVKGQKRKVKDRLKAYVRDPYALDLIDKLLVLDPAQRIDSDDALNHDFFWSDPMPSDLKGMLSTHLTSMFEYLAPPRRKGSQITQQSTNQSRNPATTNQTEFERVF
T1 sequence (O60563 whole entry partner): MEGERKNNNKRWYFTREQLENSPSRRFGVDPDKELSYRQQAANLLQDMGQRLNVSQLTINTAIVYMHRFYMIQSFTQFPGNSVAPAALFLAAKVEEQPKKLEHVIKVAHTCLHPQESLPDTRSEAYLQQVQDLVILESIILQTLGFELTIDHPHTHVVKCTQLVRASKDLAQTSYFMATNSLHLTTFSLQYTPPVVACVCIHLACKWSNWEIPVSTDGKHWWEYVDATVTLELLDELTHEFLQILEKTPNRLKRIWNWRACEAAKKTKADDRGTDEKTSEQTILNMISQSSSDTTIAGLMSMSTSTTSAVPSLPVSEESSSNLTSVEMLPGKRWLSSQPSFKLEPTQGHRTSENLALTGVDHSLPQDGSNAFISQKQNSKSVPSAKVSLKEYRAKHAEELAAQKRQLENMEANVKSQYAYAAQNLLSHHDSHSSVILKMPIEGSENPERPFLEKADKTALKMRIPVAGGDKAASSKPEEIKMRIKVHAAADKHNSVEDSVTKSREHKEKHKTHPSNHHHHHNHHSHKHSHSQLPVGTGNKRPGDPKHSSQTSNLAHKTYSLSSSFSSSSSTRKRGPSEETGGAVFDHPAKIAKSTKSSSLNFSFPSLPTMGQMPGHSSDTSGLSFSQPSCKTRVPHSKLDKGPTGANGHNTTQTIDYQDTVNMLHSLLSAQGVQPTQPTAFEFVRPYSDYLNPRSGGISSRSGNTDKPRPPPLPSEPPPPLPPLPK
Description: Lanthascreen kinase binding assay, CDK9. The conditions noted are these: for IC50: Supplementary Table 2, read-out: Lanthascreen IC50 [nM] CDK9; for Lanthascreen TR-FRET signal (raw ratio), sheet CDK9: duplicates. As to the method: Lanthascreen experiments were performed using commercially available reagents (Thermo Fisher) and according to the manufacturer’s instructions.

Test [3] has as its system cyclin K–eGFP degradation reporter. The experiment in a line: Cyclin K reporter stability analysis (dual-color cyclin K–eGFP reporter). It counts as cell-based, human. The method in brief: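 Values reflect cyclin K–eGFP levels after a 5 h exposure, expressed as the green-to-red fluorescence ratio and scaled to three vehicle-treated controls. Measurements came from HEK293T–Cas9 reporter cells by flow cytometry.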

The mark [4] stands for this setting: compound 0.038147 nM, second titration set (r13).
[5] abbreviates: compound 0.152588 nM, second titration set (r13).
Setting [6] is: compound 0.610352 nM, second titration set (r13).
[7] abbreviates: compound 1.02544 nM, first titration set (r1).
Where [8] appears, read: compound 3.15521 nM, first titration set (r1).
[9] abbreviates: compound 9.46563 nM, first titration set (r1).
The mark [10] stands for this setting: compound 9.76563 nM, second titration set (r13).
Where [11] appears, read: compound 31.5521 nM, first titration set (r1).
[12] abbreviates: compound 39.0625 nM, second titration set (r13).
Where [13] appears, read: compound 99.3891 nM, first titration set (r1).
The mark [14] stands for this setting: compound 156.25 nM, second titration set (r13).
[15] abbreviates: compound 315.521 nM, first titration set (r1).
Where [16] appears, read: compound 625 nM, second titration set (r13).
[17] abbreviates: compound 2500 nM, second titration set (r13).
The mark [18] stands for this setting: compound 3155.21 nM, first titration set (r1).
Setting [19] is: compound 10000 nM, second titration set (r13).
The mark [20] stands for this setting: compound 10002 nM, first titration set (r1).
The mark [21] stands for this setting: source data sheet correlations, read-out: DC50.

Values joined by “and” are separate entries in the source; they are usually repeats but may differ in a detail not shown here. Equal entries are not always repeated. Where two headings read alike, the source gives them in different places.

As for `Cc1ccc(C(=O)N2CSCC2C(=O)Nc2ncc(C)s2)o1` (stereo not drawn) [dCeMM4], the 50% effective concentration (EC50) in test [1] is 2.63 µM. Also, the Toxicity rescue in test [1] was 281%. Moreover, the 50% inhibitory concentration (IC50) in test [2] worked out at 2460 nM. Moreover, the “Lanthascreen TR-FRET signal (raw ratio), sheet CDK9” value in test [2] (setting [4]) was 0.01401 and 0.01443; in test [2] (setting [5]) it was 0.01297 and 0.01342; in test [2] (setting [6]) it was 0.01434 and 0.01401; in test [2] (setting [7]) it was 0.01509 and 0.01456; in test [2] (setting [8]), 0.01409 and 0.01238; in test [2] (setting [9]), 0.01419 and 0.01391. The “Lanthascreen TR-FRET signal (raw ratio), sheet CDK9” value in test [2] (setting [10]) was 0.01424 and 0.01466; in test [2] (setting [11]) it was 0.01363 and 0.01274; in test [2] (setting [12]), 0.01378 and 0.01422; in test [2] (setting [13]) it was 0.01334 and 0.01404; in test [2] (setting [14]), 0.01404 and 0.01353; in test [2] (setting [15]), 0.01521 and 0.01465. The “Lanthascreen TR-FRET signal (raw ratio), sheet CDK9” value in test [2] (setting [16]) is 0.01264 and 0.01274; in test [2] (setting [17]), 0.01019 and 0.009296; in test [2] (setting [18]), 0.008036 and 0.01025; in test [2] (setting [19]), 0.006352 and 0.006436; in test [2] (setting [20]), 0.007034 and 0.007071. Moreover, in test [3] (setting [21]), the DC50 amounted to 1.21 µM.

For `Cc1cc2nc(CNc3nc(N4CCN(C)CC4)nc4c(Br)cnn34)[nH]c2cc1C` [DS73, reference compound], the EC50 in test [1] came out at 0.002 µM. In addition, the Toxicity rescue in test [1] amounted to 850%. Moreover, in test [2], the IC50 was 557 nM. The “Lanthascreen TR-FRET signal (raw ratio), sheet CDK9” value in test [2] (setting [7]) was 0.01409 and 0.01452; in test [2] (setting [8]), 0.01533 and 0.01444; in test [2] (setting [9]), 0.01086 and 0.01492; in test [2] (setting [11]), 0.01278 and 0.01412; in test [2] (setting [13]), 0.01498 and 0.0129; in test [2] (setting [15]), 0.01059 and 0.008471. Besides, the “Lanthascreen TR-FRET signal (raw ratio), sheet CDK9” value in test [2] (setting [18]) is 0.004926 and 0.00557; in test [2] (setting [20]), 0.002868 and 0.004276. The DC50 in test [3] (setting [21]) came out at 0.001 µM.

Take `O=C(CSc1nnc2c(n1)[nH]c1ccccc12)Nc1ccc(Cl)cn1` [dCeMM2]: the EC50 in test [1] was determined as 1.42 µM. The Toxicity rescue in test [1] is recorded as 398%. In addition, the half-maximal inhibitory concentration (IC50) in test [2] was 1110 nM. Also, the “Lanthascreen TR-FRET signal (raw ratio), sheet CDK9” value was 0.01383 and 0.01355 in test [2] (setting [4]); 0.0139 and 0.01441 in test [2] (setting [5]); 0.01347 and 0.01396 in test [2] (setting [6]); 0.01429 and 0.01561 in test [2] (setting [7]); 0.01467 and 0.01402 in test [2] (setting [8]); 0.01439 and 0.01388 in test [2] (setting [9]). The “Lanthascreen TR-FRET signal (raw ratio), sheet CDK9” value is 0.01427 and 0.01339 in test [2] (setting [10]); 0.01459 and 0.0177 in test [2] (setting [11]); 0.01365 and 0.01337 in test [2] (setting [12]); 0.01319 and 0.01787 in test [2] (setting [13]); 0.01319 and 0.01335 in test [2] (setting [14]); 0.01154 and 0.01497 in test [2] (setting [15]). Also, the “Lanthascreen TR-FRET signal (raw ratio), sheet CDK9” value is 0.01033 and 0.01039 in test [2] (setting [16]); 0.00843 and 0.008233 in test [2] (setting [17]); 0.01003 and 0.01129 in test [2] (setting [18]); 0.006379 and 0.005879 in test [2] (setting [19]); 0.009746 and 0.009366 in test [2] (setting [20]). In addition, the DC50 in test [3] (setting [21]) amounted to 0.633 µM.

On to `O=C(CSc1nc2ccccc2[nH]1)Nc1ccc(Cl)cn1` [dCeMM3], for which the 50% effective concentration (EC50) in test [1] is over 10 µM. Besides, the Toxicity rescue in test [1] came to 0%. The IC50 in test [2] worked out at 3020 nM. The “Lanthascreen TR-FRET signal (raw ratio), sheet CDK9” value is 0.01294 and 0.01365 in test [2] (setting [4]); 0.0141 and 0.01339 in test [2] (setting [5]); 0.0143 and 0.01462 in test [2] (setting [6]); 0.01545 and 0.0134 in test [2] (setting [7]); 0.01353 and 0.01504 in test [2] (setting [8]); 0.01222 and 0.01325 in test [2] (setting [9]). Also, the “Lanthascreen TR-FRET signal (raw ratio), sheet CDK9” value was 0.01396 and 0.01385 in test [2] (setting [10]); 0.0135 and 0.01525 in test [2] (setting [11]); 0.0129 and 0.01348 in test [2] (setting [12]); 0.01289 and 0.01231 in test [2] (setting [13]); 0.01372 and 0.01352 in test [2] (setting [14]); 0.01199 and 0.01288 in test [2] (setting [15]). Further, the “Lanthascreen TR-FRET signal (raw ratio), sheet CDK9” value was 0.01085 and 0.01132 in test [2] (setting [16]); 0.0085 and 0.007435 in test [2] (setting [17]); 0.006467 and 0.007084 in test [2] (setting [18]); 0.00463 and 0.004475 in test [2] (setting [19]); 0.0026 and 0.00423 in test [2] (setting [20]). Also, in test [3] (Supplementary Table 2, HEK293T cycK-eGFP reporter, 5 h, read-out: Cellular assays DC50), the 50% degradation concentration (DC50) is over 10 µM.

Values taken from PMC10746543, “Design principles for cyclin K molecular glue degraders” (Nature Chemical Biology, 2023).
